According to patent publication US6716854B2, “Treatments for restless legs syndrome” (Pfizer, Inc., priority 2000, dated 2004):
Where a name gives a salt, the structure may show the parent alone. Each block holds one molecule with its values, some of them ahead of it.

Legend:
people with RLS = settings: recent studies quoted from RLS Internet site; cited from earlier work
[1] = in vivo; cited from earlier work
RLS patients = settings: cited from earlier work

SMILES: CCCN1C[C@H](CSC)C[C@@H]2c3cccc4[nH]cc(c34)C[C@H]21 [Permax®, pergolide mesylate]
effectiveness in treating RLS relative to Sinemet (people with RLS): as effective as Sinemet® | potential for causing augmentation (people with RLS): 10%

SMILES: CCCN1C[C@H](CSC)C[C@@H]2c3cccc4[nH]cc(c34)C[C@H]21 [Pergolide]
half-life [1]: 7 to 16 h

SMILES: N[C@@H](Cc1ccc(O)c(O)c1)C(=O)O [L-dopa]
suppression of RLS (RLS patients; L-dopa 100 mg with carbidopa 10 mg, in most cases, rebound of PLMS in last part of night): completely suppresses RLS | effect on RLS at bedtime and PLMS throughout the night (RLS patients; administered twice at night, PSG recordings, double-blind): significant reduction

melting point: 210 to 213 °C
SMILES: CN[C@@H]1Cc2cccc3[nH]c(=S)n(c23)C1

melting point: 195 to 196 °C
SMILES: CN[C@@H]1Cc2cccc3[nH]c(=S)n(c23)C1.O=C(O)/C=C\C(=O)O
